Reference: patent US20080051429A1, “USE OF 4-AMINO-PIPERIDINES FOR TREATING SLEEP DISORDERS” (priority 2006, published 2008)

Key:
Assay in all cases: R-SAT broad profiling
Assay type in all cases: cell-based
oprk 1 = molecular target: T1, oprk 1 (Homo sapiens, UniProt P41145); conditions: read-out: pEC50 or pIC50 (converted)
T1 construct: expressed in transfected cells; host or cells: NIH3T3
Description: (§1) The functional receptor assay, Receptor Selection and Amplification Technology (R-SAT), was used (with minor modifications from that previously described U.S. Pat. No. 5,707,798) to screen compounds for efficacy at the 5-HT2A receptor. Briefly, NIH3T3 cells were grown in 96 well tissue culture plates to 70-80% confluence. Cells were transfected for 12-16 hours with plasmid DNAs using superfect (Qiagen Inc.) as per manufacture's protocols. R-SAT's were generally performed with 50 ng/well of receptor and 20 ng/well of Beta-galactosidase plasmid DNA. All receptor and G-protein constructs used were in the pSI mammalian expression vector (Promega Inc) as described in U.S. Pat. No. 5,707,798. The 5HT2A receptor gene was amplified by nested PCR from brain cDNA using the oligodeoxynucleotides based on the published sequence (see Saltzman et. al. Biochem. Biophys. Res. Comm. 181:1469-78 (1991)). Large-scale transfections, cells were transfected for 12-16 hours, then trypsinized and frozen in DMSO. Frozen cells were later thawed, plated at 10,000-40,000 cells per well of a 96 well plate that contained drug. With both methods, cells were then grown in a humidified atmosphere with 5% ambient CO2 for five days. Media was then removed from the plates and marker gene activity was measured by the addition of the beta-galactosidase substrate ONPG (in PBS with 5% NP-40). The resulting colorimetric reaction was measured in a spectrophotometric plate reader (Titertek Inc.)at […]. All data were analyzed using the computer program XLFit (IDBSm). Efficacy is the percent maximal repression compared to repression by a control compound (ritanserin in the case of 5HT2A). pIC50 is the negative of the log(IC50), where IC50 is the calculated concentration in Molar that produces 50% maximal repression.
(§2) The R-SAT assay (described above in example 289) was used to investigate the selectivity of 4-(4-Fluoro-benzyl)-3-(4-isobutoxy-benzyl)-8-methyl-1-oxa-3,8-diaza-spiro[4.5]decan-2-one.

D1 = molecular target: T2, D1 (Homo sapiens, UniProt P21728); conditions: read-out: pEC50 or pIC50 (converted)
T2 construct: expressed in transfected cells; host or cells: NIH3T3
Description: as §1, §2

alpha 1B = molecular target: T3, alpha 1B (Mesocricetus auratus, UniProt P18841); conditions: read-out: pEC50 or pIC50 (converted)
T3 construct: expressed in transfected cells; host or cells: NIH3T3
Description: as §1, §2

5HT6A = molecular target: T4, 5HT6A (Homo sapiens, UniProt P50406); conditions: inverse; read-out: pEC50 or pIC50 (converted)
T4 construct: expressed in transfected cells; host or cells: NIH3T3
Description: as §1, §2

5HT1D = 5HT1D (Homo sapiens, UniProt P28221); design: expressed in transfected cells; conditions: read-out: pEC50/pIC50 (converted)
Description: as §1
(§3) The R-SAT assay (described above in example 136) was used to investigate the selectivity of 2-(4-Methoxyphenyl)-N-(4-methylbenzyl)-N-(1-methylpiperidin-4-yl)acetamide hydrochloride.

5HT2B = 5HT2B (Homo sapiens, UniProt P41595); design: expressed in transfected cells; conditions: read-out: pEC50/pIC50 (converted)
Description: as §1, §3

5HT1A = molecular target: T5, 5HT1A (Homo sapiens, UniProt P08908); design: expressed in transfected cells; conditions: read-out: pEC50/pIC50 (converted)
T5 sequence (P08908 1-422): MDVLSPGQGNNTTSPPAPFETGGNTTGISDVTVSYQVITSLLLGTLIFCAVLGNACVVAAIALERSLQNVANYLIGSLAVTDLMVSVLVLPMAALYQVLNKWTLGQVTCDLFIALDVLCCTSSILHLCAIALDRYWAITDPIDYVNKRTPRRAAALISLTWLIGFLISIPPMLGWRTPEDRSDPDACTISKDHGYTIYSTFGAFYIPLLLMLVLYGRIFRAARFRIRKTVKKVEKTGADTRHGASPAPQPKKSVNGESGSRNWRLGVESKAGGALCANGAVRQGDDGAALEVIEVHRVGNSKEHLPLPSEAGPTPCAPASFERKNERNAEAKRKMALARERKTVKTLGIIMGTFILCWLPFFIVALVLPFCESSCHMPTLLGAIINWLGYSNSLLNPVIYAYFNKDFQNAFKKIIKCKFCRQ
Description: as §1, §3

5HT1B = 5HT1B (Homo sapiens, UniProt P28222); design: expressed in transfected cells; conditions: read-out: pEC50/pIC50 (converted)
Description: as §1, §3

5HT1F = molecular target: T6, 5HT1F (Homo sapiens, UniProt P30939); design: expressed in transfected cells; conditions: read-out: pEC50/pIC50 (converted)
T6 sequence (P30939 1-366): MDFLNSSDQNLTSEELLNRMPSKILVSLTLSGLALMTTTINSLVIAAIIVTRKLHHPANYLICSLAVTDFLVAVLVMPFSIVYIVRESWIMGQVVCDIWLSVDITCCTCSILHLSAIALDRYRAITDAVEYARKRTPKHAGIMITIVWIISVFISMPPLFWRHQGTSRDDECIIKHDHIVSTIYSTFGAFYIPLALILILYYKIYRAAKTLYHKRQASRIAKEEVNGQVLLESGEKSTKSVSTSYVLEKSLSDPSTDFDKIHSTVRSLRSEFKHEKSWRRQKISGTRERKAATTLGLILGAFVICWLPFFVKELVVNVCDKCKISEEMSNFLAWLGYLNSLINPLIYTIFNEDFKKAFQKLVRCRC
Description: as §1, §3

5HT2C = molecular target: T7, 5HT2C (Homo sapiens, UniProt P28335); design: expressed in transfected cells; conditions: read-out: pEC50/pIC50 (converted)
T7 sequence (P28335 33-458): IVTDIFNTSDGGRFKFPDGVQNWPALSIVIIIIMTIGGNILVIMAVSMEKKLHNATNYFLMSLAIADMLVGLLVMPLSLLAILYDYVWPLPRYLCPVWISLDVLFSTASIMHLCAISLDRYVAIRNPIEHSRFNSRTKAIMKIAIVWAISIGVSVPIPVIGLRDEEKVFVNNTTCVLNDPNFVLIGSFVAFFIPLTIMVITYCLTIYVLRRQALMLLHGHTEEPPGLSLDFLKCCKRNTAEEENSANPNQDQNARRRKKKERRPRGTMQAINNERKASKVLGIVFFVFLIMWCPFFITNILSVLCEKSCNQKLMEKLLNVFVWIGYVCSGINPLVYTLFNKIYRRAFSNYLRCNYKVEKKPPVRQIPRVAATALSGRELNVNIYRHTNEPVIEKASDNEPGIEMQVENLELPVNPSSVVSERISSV
Description: as §1, §3

Chain of 5HT2B (P41595 whole entry, species assumed): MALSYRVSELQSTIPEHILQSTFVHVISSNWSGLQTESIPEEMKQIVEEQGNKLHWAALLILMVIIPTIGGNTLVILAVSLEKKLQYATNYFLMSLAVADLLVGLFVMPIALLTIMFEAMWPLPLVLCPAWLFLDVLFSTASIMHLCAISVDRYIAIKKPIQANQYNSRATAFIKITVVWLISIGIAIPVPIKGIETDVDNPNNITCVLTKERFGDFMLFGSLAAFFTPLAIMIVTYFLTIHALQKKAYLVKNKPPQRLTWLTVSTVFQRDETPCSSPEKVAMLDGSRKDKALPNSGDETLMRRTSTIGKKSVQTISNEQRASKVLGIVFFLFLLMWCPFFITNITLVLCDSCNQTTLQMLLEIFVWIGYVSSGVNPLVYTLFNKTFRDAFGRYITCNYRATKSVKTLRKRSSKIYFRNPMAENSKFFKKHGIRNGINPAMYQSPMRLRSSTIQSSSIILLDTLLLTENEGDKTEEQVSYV
Chain of 5HT1B (P28222 whole entry, species assumed): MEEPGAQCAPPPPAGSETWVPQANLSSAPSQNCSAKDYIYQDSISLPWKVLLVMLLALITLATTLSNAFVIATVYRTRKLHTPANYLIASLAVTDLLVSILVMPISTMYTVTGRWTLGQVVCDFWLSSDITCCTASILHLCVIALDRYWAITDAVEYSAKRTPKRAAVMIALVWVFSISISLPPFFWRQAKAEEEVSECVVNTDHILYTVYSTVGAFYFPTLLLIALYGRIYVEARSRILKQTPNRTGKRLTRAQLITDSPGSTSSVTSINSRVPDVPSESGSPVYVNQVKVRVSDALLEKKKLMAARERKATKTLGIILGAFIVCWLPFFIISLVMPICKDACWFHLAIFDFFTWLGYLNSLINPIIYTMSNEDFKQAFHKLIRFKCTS
T3 sequence (P18841 whole entry): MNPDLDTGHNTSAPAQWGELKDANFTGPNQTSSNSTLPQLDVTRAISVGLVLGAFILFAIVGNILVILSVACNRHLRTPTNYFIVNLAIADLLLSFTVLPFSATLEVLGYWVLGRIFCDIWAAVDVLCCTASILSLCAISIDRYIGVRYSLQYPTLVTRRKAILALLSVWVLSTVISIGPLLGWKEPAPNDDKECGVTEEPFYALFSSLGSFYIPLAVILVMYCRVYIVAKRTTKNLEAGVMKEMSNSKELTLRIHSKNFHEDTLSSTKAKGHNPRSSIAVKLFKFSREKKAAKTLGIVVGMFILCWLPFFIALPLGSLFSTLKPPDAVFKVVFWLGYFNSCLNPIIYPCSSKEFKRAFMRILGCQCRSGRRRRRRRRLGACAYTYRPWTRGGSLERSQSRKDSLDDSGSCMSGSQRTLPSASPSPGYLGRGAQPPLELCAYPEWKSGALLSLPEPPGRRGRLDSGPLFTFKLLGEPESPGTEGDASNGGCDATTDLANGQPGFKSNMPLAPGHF
Chain of 5HT1D (P28221 whole entry, species assumed): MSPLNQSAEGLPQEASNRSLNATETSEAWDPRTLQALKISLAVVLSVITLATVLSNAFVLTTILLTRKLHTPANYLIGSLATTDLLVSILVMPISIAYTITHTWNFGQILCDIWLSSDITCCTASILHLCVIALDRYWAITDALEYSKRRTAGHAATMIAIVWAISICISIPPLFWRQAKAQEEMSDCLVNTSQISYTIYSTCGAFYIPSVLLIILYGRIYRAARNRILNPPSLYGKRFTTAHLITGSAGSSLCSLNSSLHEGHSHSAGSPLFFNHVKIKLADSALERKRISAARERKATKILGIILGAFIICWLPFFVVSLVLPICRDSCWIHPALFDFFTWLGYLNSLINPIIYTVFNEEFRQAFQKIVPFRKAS
T2 sequence (P21728 whole entry): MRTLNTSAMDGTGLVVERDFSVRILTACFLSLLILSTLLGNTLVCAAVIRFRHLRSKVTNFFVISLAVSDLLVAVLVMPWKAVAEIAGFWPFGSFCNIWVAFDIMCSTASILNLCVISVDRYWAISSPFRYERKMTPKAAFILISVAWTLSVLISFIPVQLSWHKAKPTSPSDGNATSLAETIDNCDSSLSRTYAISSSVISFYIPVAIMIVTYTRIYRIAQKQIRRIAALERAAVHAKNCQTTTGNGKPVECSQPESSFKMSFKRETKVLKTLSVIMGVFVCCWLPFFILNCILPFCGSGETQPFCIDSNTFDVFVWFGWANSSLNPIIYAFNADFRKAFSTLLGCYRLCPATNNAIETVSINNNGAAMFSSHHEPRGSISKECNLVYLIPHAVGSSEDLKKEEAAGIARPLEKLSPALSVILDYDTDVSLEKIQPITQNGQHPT
T1 sequence (P41145 whole entry): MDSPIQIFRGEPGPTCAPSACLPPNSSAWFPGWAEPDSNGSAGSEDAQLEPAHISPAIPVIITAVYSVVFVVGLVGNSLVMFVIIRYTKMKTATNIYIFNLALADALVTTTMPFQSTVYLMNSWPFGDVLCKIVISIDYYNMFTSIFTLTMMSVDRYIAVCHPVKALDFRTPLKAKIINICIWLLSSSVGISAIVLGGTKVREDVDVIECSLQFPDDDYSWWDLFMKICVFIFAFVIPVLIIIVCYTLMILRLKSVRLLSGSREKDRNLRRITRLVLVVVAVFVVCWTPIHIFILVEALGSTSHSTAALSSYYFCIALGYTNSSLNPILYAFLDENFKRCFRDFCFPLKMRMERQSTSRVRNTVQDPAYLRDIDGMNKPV
T4 sequence (P50406 whole entry): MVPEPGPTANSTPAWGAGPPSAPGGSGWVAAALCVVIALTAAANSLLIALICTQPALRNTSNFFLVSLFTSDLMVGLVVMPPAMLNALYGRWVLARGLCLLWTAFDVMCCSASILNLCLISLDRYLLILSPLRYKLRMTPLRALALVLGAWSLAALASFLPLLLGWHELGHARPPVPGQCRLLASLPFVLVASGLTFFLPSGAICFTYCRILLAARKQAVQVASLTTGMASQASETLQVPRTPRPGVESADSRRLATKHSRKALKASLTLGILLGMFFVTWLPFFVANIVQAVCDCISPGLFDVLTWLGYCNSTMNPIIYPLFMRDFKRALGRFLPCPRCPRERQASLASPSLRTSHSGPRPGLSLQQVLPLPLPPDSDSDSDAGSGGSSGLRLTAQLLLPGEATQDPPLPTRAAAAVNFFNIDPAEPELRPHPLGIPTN

SMILES | EC50 (oprk 1; agonist) | IC50 (oprk 1; antagonist) | EC50 (D1; agonist) | IC50 (D1; antagonist) | EC50 (alpha 1B; agonist) | IC50 (alpha 1B; antagonist) | IC50 (5HT6A) | EC50 (5HT1D; agonist) | IC50 (5HT1D; antagonist) | EC50 (5HT2B; agonist) | IC50 (5HT2B; inverse agonist) | EC50 (5HT1A; agonist) | IC50 (5HT1A; antagonist) | EC50 (5HT1B; agonist) | IC50 (5HT1B; antagonist) | EC50 (5HT1F; agonist) | IC50 (5HT1F; antagonist) | EC50 (5HT2C; agonist) | IC50 (5HT2C; inverse agonist)
CC(C)COc1ccc(CN2C(=O)OC3(CCN(C)CC3)C2Cc2ccc(F)cc2)cc1.Cl (racemic) [Example 69NLS75, 4-(4-Fluorobenzyl)-3-(4-isobutoxybenzyl)-8-methyl-1-oxa-3,8-diazaspiro[4.5]decan-2-one, hydrochloride] | > 3.16 µM | > 3.16 µM | > 3.16 µM | > 3.16 µM | > 3.16 µM | > 3.16 µM | > 3.16 µM | – | – | – | – | – | – | – | – | – | – | – | –
COc1ccc(CC(=O)N(Cc2ccc(C)cc2)C2CCN(C)CC2)cc1 [Example 50ELH27, 2-(4-Methoxyphenyl)-N-(4-methylbenzyl)-N-(1-methylpiperidin-4-yl)acetamide] | – | – | – | – | – | – | – | > 3.16 µM | > 3.16 µM | > 3.16 µM | 0.126 µM | > 3.16 µM | > 3.16 µM | > 3.16 µM | > 3.16 µM | > 3.16 µM | > 3.16 µM | > 3.16 µM | 0.1 µM
